# Where “and” joins values, the source holds several entries; their conditions need not be identical. Identical values can stand only once.
# Target: T1, human TAS2R1 (Homo sapiens, UniProt Q9NYW7)
# T1 construct: expressed in transfected cells; host or cells: HEK293T-Gα16gust44
# T1 sequence (Q9NYW7 1-299): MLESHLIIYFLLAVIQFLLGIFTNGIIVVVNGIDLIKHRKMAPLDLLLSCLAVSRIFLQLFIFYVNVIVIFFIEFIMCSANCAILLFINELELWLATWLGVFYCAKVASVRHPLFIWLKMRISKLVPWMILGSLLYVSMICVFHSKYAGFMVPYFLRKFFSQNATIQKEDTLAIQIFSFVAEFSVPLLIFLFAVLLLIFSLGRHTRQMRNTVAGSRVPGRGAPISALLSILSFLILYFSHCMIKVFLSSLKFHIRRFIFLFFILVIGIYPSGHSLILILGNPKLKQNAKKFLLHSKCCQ
# Assay: Calcium imaging assay (FLIPR), HEK293T-Gα16gust44 cells transfected with human TAS2R1
# Format: cell-based
# In short: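 Calcium responses via FLIPR in receptor-transfected HEK293T-Gα16gust44 cells (Fluo-4-AM, 2.5 mM probenecid), after mock-signal subtraction and normalization to baseline and buffer (ΔF/F). Threshold concentration is the lowest dose differing from mock cells at p < 0.01 (Student's t-test), from three biological replicates in duplicate.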
compound,measurement,setting,value
"C[C@H](CCC(=O)NCCS(=O)(=O)O)[C@H]1CC[C@H]2[C@@H]3[C@H](O)C[C@@H]4C[C@H](O)CC[C@]4(C)[C@H]3C[C@H](O)[C@]12C [Taurocholic Acid, taurocholic acid]",Efficacy = maximal amplitude (ΔF/F),"TAS2R1, bile acids, mean",0.09987
same,"Efficacy (maximal amplitude ΔF/F), individual data points","TAS2R1, bile acids, single replicates, listed as TCA",0.08896 and 0.09306 and 0.1176
same,RLU,Time 0 s (second time grid),0 RLU
same,RLU,Time 2 s,7.952 RLU
same,RLU,Time 4 s,20.145 RLU
same,RLU,Time 6 s,-3.167 RLU
same,RLU,Time 8 s,-1.092 RLU
same,RLU,Time 12 s,4.801 RLU
same,RLU,Time 14 s,10.0652 RLU
same,RLU,Time 16 s,-4.025 RLU
same,RLU,Time 18 s,30.6672 RLU
same,RLU,Time 18.781 s,-8.288 RLU
same,RLU,Time 20.781 s,38.1129 RLU
same,RLU,Time 22.781 s,36.5466 RLU
same,RLU,Time 24.781 s,100.781 RLU
same,RLU,Time 26.781 s,94.321 RLU
same,RLU,Time 28.781 s,128.096 RLU
same,RLU,Time 30.781 s,168.752 RLU
same,RLU,Time 32.781 s,222.063 RLU
same,RLU,Time 34.781 s,248.838 RLU
same,RLU,Time 36.781 s,287.098 RLU
same,RLU,Time 38.781 s,303.962 RLU
same,RLU,Time 40.781 s,295.88 RLU
same,RLU,Time 42.781 s,354.401 RLU
same,RLU,Time 44.781 s,378.941 RLU
same,RLU,Time 46.781 s,349.497 RLU
same,RLU,Time 48.781 s,364.135 RLU
same,RLU,Time 50.781 s,379.282 RLU
same,RLU,Time 52.781 s,390.659 RLU
same,RLU,Time 54.781 s,392.471 RLU
same,RLU,Time 56.781 s,396.221 RLU
same,RLU,Time 58.781 s,410.391 RLU
same,RLU,Time 60.781 s,390.107 RLU
same,RLU,Time 62.781 s,396.638 RLU
same,RLU,Time 64.781 s,407.599 RLU
same,RLU,Time 66.781 s,435.147 RLU
same,RLU,Time 68.781 s,406.802 RLU
same,RLU,Time 70.781 s,400.242 RLU
same,RLU,Time 72.781 s,418.773 RLU
same,RLU,Time 74.781 s,413.176 RLU
same,RLU,Time 76.781 s,422.764 RLU
same,RLU,Time 78.781 s,402.418 RLU
same,RLU,Time 80.781 s,440.793 RLU
same,RLU,Time 82.781 s,428.932 RLU
same,RLU,Time 84.781 s,402.626 RLU
same,RLU,Time 86.781 s,438.62 RLU
same,RLU,Time 88.781 s,435.97 RLU
same,RLU,Time 90.781 s,417.798 RLU
same,RLU,Time 92.781 s,396.047 RLU
same,RLU,Time 94.781 s,416.808 RLU
same,RLU,Time 96.781 s,401 RLU
same,RLU,Time 98.781 s,382.662 RLU
same,RLU,Time 100.781 s,386.609 RLU
same,RLU,Time 102.781 s,391.574 RLU
same,RLU,Time 104.781 s,343.693 RLU
same,RLU,Time 106.781 s,334.229 RLU
same,RLU,Time 108.781 s,318.822 RLU
same,RLU,Time 110.781 s,359.901 RLU
same,RLU,Time 112.781 s,338.629 RLU
same,RLU,Time 114.781 s,327.9 RLU
same,RLU,Time 116.781 s,308.179 RLU
same,RLU,Time 118.781 s,311.101 RLU
same,RLU,Time 120.781 s,314.431 RLU
same,RLU,Time 122.781 s,288.825 RLU
same,RLU,Time 124.781 s,292.111 RLU
same,RLU,Time 126.781 s,280.428 RLU
same,RLU,Time 128.781 s,264.252 RLU
same,RLU,Time 130.781 s,247.5 RLU
same,RLU,Time 132.781 s,279.196 RLU
same,RLU,Time 134.781 s,263.266 RLU
same,RLU,Time 136.781 s,260.122 RLU
same,RLU,Time 137.547 s,257.068 RLU
same,RLU,Time 143.547 s,228.429 RLU
same,RLU,Time 149.547 s,221.043 RLU
same,RLU,Time 155.547 s,204.711 RLU
same,RLU,Time 161.547 s,175.173 RLU
same,RLU,Time 167.547 s,178.916 RLU
same,RLU,Time 173.547 s,141.583 RLU
same,RLU,Time 179.547 s,150.852 RLU
same,RLU,Time 185.547 s,123.705 RLU
same,RLU,Time 191.547 s,70.5412 RLU
same,RLU,Time 197.547 s,46.3148 RLU
same,RLU,Time 203.547 s,75.6277 RLU
same,RLU,Time 209.547 s,55.0459 RLU
same,RLU,Time 215.547 s,35.7219 RLU
same,RLU,Time 221.547 s,50.9362 RLU
same,RLU,Time 227.547 s,33.794 RLU
same,RLU,Time 233.547 s,65.6166 RLU
same,RLU,Time 239.547 s,27.332 RLU
same,RLU,Time 245.547 s,17.8718 RLU
same,RLU,Time 293.547 s,-10.6071 RLU
same,RLU,Time 299.547 s,-16.6248 RLU
same,RLU,"calcium trace, sheet TAS2R1, Time 305.547 s",-3.144 RLU
same,RLU,"calcium trace, sheet TAS2R1, Time 311.547 s",2.9951 RLU
same,RLU,"calcium trace, sheet TAS2R1, Time 317.547 s",-15.9144 RLU
same,RLU,"calcium trace, sheet TAS2R1, Time 323.547 s",-10.1142 RLU
same,RLU,"calcium trace, sheet TAS2R1, Time 329.547 s",11.6208 RLU
same,RLU,"calcium trace, sheet TAS2R1, Time 335.547 s",11.3706 RLU
same,RLU,"calcium trace, sheet TAS2R1, Time 341.547 s",7.052 RLU
same,RLU,"calcium trace, sheet TAS2R1, Time 347.547 s",31.851 RLU
same,RLU,"calcium trace, sheet TAS2R1, Time 353.547 s",3.282 RLU
same,RLU,"calcium trace, sheet TAS2R1, Time 359.547 s",34.6741 RLU
same,Δ F/F,"conc. 0,01 mM, TAS2R1",0.007126
same,Δ F/F,"conc. 0,1 mM, TAS2R1",0.04642
same,Δ F/F,"conc. 0,03 mM, TAS2R1",0.01897
same,Δ F/F,"conc. 0,3 mM, TAS2R1",0.09987
same,Δ F/F,"conc. 0,001 mM, TAS2R1",0.004203
same,Δ F/F,"conc. 0,003 mM, TAS2R1",0.00592
same,Activation threshold concentration TAS2R1,lowest concentration with significantly increased fluorescence vs empty vector (p < 0.01),100 µM and 100.00 µM

# — PMC10247784, “Physiological activation of human and mouse bitter taste receptors by bile acids” (Communications Biology, 2023)
